From article PMC2639753 (Bioorganic & medicinal chemistry, 2008)

Key:
HIV-1 (IIIB) = assay: Antiviral activity against HIV-1; conditions: MT-2 cells
HIV-1 RT = HIV-1 RT (Human immunodeficiency virus type 1 group M subtype B, UniProt P03366); assay: In vitro steady-state RT inhibition assay; assay type: biochemical

SMILES: C#CCOc1ccc(OC)cc1CCNC(=S)Nc1ccc(Br)cn1 [6b, N-(5-Bromo-2-pyridinyl)-N′-[2-(5-methoxy-2-propargyloxyphenyl)ethyl]-thiourea]
- activity relative to HI-236 in cell culture (HIV-1 (IIIB)): equal to HI-236

SMILES: C#CCCOc1ccc(OC)cc1CCNC(=S)Nc1ccc(Br)cn1 [6c, N-(5-Bromo-2-pyridinyl)-N′-{2-[2-(3-butynyl-1-oxy)-5-methoxyphenyl]ethyl}-thiourea]
- fold increase in activity compared to HI-236 in the RT assay (HIV-1 RT): 7 fold

SMILES: C#CCCCOc1ccc(OC)cc1CCNC(=S)Nc1ccc(Br)cn1 [6d, N-(5-Bromo-2-pyridinyl)-N′-{2-[5-methoxy-2-(4-pentynyl-1-oxy)phenyl]ethyl}-thiourea]
- activity relative to HI-236 in the RT assay (HIV-1 RT): as active as HI-236

SMILES: C#CCOCCOc1ccc(OC)cc1CCNC(=S)Nc1ccc(Br)cn1 [6i]
- T.I (in vitro therapeutic index CC50/EC50) (HIV-1 (IIIB)): 100

SMILES: COC(=O)COc1ccc(OC)cc1CCNC(=S)Nc1ccc(Br)cn1 [6k, N-(5-Bromo-2-pyridinyl)-N′-[2-(2-methoxycarbonylmethyloxy-5-methoxyphenyl)ethyl]-thiourea]
- IC50 (HIV-1 RT): 100 nM
- fold improvement in RT assay over cell culture (HIV-1 RT; RT IC50 versus cell-culture EC50): 120 fold

SMILES: COc1ccc(OCCCC#N)c(CCNC(=S)Nc2ccc(Br)cn2)c1 [6m]
- activity relative to HI-236 in cell culture (HIV-1 (IIIB)): equal to HI-236

SMILES: COc1ccc(OCCCO)c(CCNC(=S)Nc2ccc(Br)cn2)c1 [6o]
- activity relative to HI-236 in the RT assay (HIV-1 RT): as active as HI-236
